Values joined by “and” are separate entries in the source; they are usually repeats but may differ in a detail not shown here. Equal entries are not always repeated. Where two headings read alike, the source gives them in different places.
System: panel of 66 cancer cell lines
Experiment: cancer cell line screen, proliferation assay (ATPlite, 72 h)
Format: cell-based, human
Conditions: for IC50: Homo sapiens; for raw signal, dose-response (Figure S7a): rep1, rep2, listed as AVX235
Source text: Targeting specific molecular vulnerabilities in cancer is considered a key approach to reducing the adverse effects of chemotherapy. However, the events that govern the susceptibility to suppression of the cPLA2α in cancer remain largely unexplored. We therefore took the approach of screening the antiproliferative activity of AVX420 in a panel of 66 cancer cell lines (hereafter referred to as the cancer cell line screen or CCLS) to allow us to investigate molecular and genetic vulnerabilities to the drug.
Screening of compound activities in 66 cancer cell lines was carried out at the Netherlands Translation Research Center. Briefly, proliferation assays were performed 72 h after compound addition using ATPlite 1step reagent (Perkin Elmer). IC50s calculated by non-linear regression analysis were used as a measure of compound activity for investigating associations with genetic factors. A complete description of the laboratory and data analysis methods are available in the Supplementary Information file (Supplemental Methods: Cancer Cell Line Screening).
Cancer cell line screening
Cell proliferation assays
All cell lines were from the American Type Culture Collection (ATCC) Manassas, Virginia (US) and maintained under ATCC-recommended protocols and within 9 pas- […]
DMSO at -80°C until one hour before use. Cells exposed within one hour after thaw-ing of the compound stocks. Final compound concentration range in the assay was 10 […]
cated by supplier. Compounds were dissolved in 100 % DMSO and stored at room temperature. Final concentration of the reference compounds in the assay was 3.16x10-5 M to 3.16x10-9 M. The final DMSO concentration during incubation was […]
Cell lines were plated in Advanced RPMI 1640 (Gibco, ref 12633-012) cell culture medium, containing 1% Glutamax solution (Gibco, ref 35050-038), 0.4% Pen Strep solution (Gibco, ref 15140-122) and bovine serum. The cPLA2α inhibitors were tested in 0.5% bovine serum (HyClone, ref SH30072.03) with the exception of769-P, A-204, BT-549, SR, T98G, which were tested in the presence of 1.0% serum and A-704 and LNCaP FGS, which were tested in the in the presence of 10% serum. Reference com-pounds were all tested in the presence of 10% bovine serum.
Cells were dispensed in a 384-well plate, at a concentration of 200 - 3200 cells per well, depending on the cell line, in 45 μL medium. Plated cells were incubated in a humidified atmosphere of 5% CO2 at 37 °C. After 24 hours, 5 μL of compound dilu-tion was added and plates were further incubated for another 72 hours. After 72 hours, 25 μL of ATPlite 1Step™ (PerkinElmer) solution was added to each well, and subse-quently shaken for 2 minutes. After 10 minutes of incubation in the dark, the lumines-cence was recorded on an Envision multimode reader (PerkinElmer).
Cell growth control. The cellular doubling times of all cell lines are calculated from the t = 0 hours and t = 72 hours growth signals of the untreated cells. If the doubling time is out of specification (0.5 – 2.0 times deviating from historic average) the assay […]
IC50s were calculated by non-linear regression using IDBS XLfit 5. The percentage growth after 72h (%-growth) was calculated as follows: 100% x (luminescence t = 72h / luminescence untreated,t=72h). This was fitted to the 10log compound concentration (conc) by a 4-parameter logistics curve: %-growth = bottom + (top – bottom) / (1+ 10(logIC50 – conc)*hill)), where hill is the Hill-coefficient, and bottom and top the asymptotic mini-mum and maximum cell growth that the compound allows in that assay.
All analysis were performed in the statistical software package R and visualized using GraphPad Prism version 10.0 .0

IC50 (SK-N-AS, SKNAS, peripheral_nervous_system, read-out: pIC50 (converted)): 19.1 µM
IC50 (SK-N-AS, read-out: IC50): 19 µM
IC50 (SK-N-FI, read-out: IC50): 17.5 µM
IC50 (SNU-C2B, read-out: IC50): 14.7 µM
IC50 (SR, read-out: IC50): 13.8 µM
IC50 (SUP-T1, SUP-T1, read-out: IC50): 12.5 µM
IC50 (SW48, SW48, large_intestine, read-out: pIC50 (converted)): 20 µM
IC50 (SW48, SW48, read-out: IC50): 19.9 µM
IC50 (SW480, SW480, read-out: IC50): 13.5 µM
IC50 (SW948, SW948, read-out: IC50): 17.4 µM
IC50 (SW-620, SW620, read-out: IC50): 18.1 µM
IC50 (T98G, read-out: IC50): 28.4 µM
IC50 (T-24, T24, read-out: IC50): 12.3 µM
IC50 (TT, read-out: IC50): 21.8 µM
IC50 (U2OS, U-2 OS, read-out: IC50): 17.7 µM
IC50 (U-87 MG, U87MG, central_nervous_system, read-out: pIC50 (converted)): 17 µM
IC50 (U-87 MG, read-out: IC50): 17 µM
IC50 (VA-ES-BJ, read-out: IC50): 19.6 µM
pIC50 (Hs578T, breast): 4,862
pIC50 (J82, urinary_tract): 4,801
pIC50 (Jurkat, blood): 4,903
pIC50 (K562, blood): 4,964
pIC50 (KU812, blood): 4,982
pIC50 (LoVo, large_intestine): 4,715
pIC50 (MCF7, breast): 4,897
pIC50 (MIAPaCa2, pancreas): 4,962
pIC50 (MeWo, skin): 4,763
pIC50 (NCIH82, lung): 4,863
pIC50 (NCIH460, lung): 4,648
pIC50 (PA1, ovary): 4,937
pIC50 (RPMI7951, skin): 4,789
pIC50 (RT4, urinary_tract): 4,784
pIC50 (SHP77, lung): 4,925
pIC50 (SKNFI, peripheral_nervous_system): 4,757
pIC50 (SUPT1, blood): 4,905
pIC50 (SW480, large_intestine): 4,869
pIC50 (SW620, large_intestine): 4,743
pIC50 (SW948, large_intestine): 4,759
pIC50 (T24, urinary_tract): 4,911
pIC50 (T98G, central_nervous_system): 4,546
pIC50 (TT, thyroid): 4,661
pIC50 (U2OS, bone): 4,752
pIC50 (VAESBJ, soft_tissue): 4,707
Compound: CCCCCCCCc1ccc(OCC(=O)c2nc(C(=O)OC)cs2)cc1 [GK470]
raw signal, dose-response (Figure S7a) (Jurkat E6.1, Log10 M -4): 1240 and 667
raw signal, dose-response (Figure S7a) (Jurkat E6.1, Log10 M -4.5): 69347 and 62800
raw signal, dose-response (Figure S7a) (Jurkat E6.1, Log10 M -5): 1516720 and 2014840
raw signal, dose-response (Figure S7a) (Jurkat E6.1, Log10 M -5.5): 2624707 and 2368947
raw signal, dose-response (Figure S7a) (Jurkat E6.1, Log10 M -6): 2496507 and 2717280
raw signal, dose-response (Figure S7a) (Jurkat E6.1, Log10 M -6.5): 2786800 and 2504560
raw signal, dose-response (Figure S7a) (Jurkat E6.1, Log10 M -7): 2315800 and 2537613
raw signal, dose-response (Figure S7a) (Jurkat E6.1, Log10 M -7.5): 2302120 and 2459400
raw signal, dose-response (Figure S7a) (Jurkat E6.1, Log10 M -8): 2509133 and 2328987
raw signal, dose-response (Figure S7a) (KU812, Log10 M -4): 2000 and 2307
raw signal, dose-response (Figure S7a) (KU812, Log10 M -5): 1822573 and 2233120
raw signal, dose-response (Figure S7a) (KU812, Log10 M -5.5): 3176813 and 3177440
raw signal, dose-response (Figure S7a) (KU812, Log10 M -6): 3485480 and 3637827
raw signal, dose-response (Figure S7a) (KU812, Log10 M -6.5): 3729800 and 3806653
raw signal, dose-response (Figure S7a) (KU812, Log10 M -7): 3631000 and 3828800
raw signal, dose-response (Figure S7a) (KU812, Log10 M -7.5): 3591800 and 3773040
raw signal, dose-response (Figure S7a) (KU812, Log10 M -8): 3583000 and 3731880
raw signal, dose-response (Figure S7a) (MOLT-4, Log10 M -4): 6747 and 7320
raw signal, dose-response (Figure S7a) (MOLT-4, Log10 M -4.5): 20107 and 20253
raw signal, dose-response (Figure S7a) (MOLT-4, Log10 M -5): 5205800 and 4645067
raw signal, dose-response (Figure S7a) (MOLT-4, Log10 M -5.5): 6414373 and 7056240
raw signal, dose-response (Figure S7a) (MOLT-4, Log10 M -6): 6351120 and 6709307
raw signal, dose-response (Figure S7a) (MOLT-4, Log10 M -6.5): 7338240 and 7172960
raw signal, dose-response (Figure S7a) (MOLT-4, Log10 M -7): 6855453 and 6993467
raw signal, dose-response (Figure S7a) (MOLT-4, Log10 M -7.5): 7127253 and 7052227
raw signal, dose-response (Figure S7a) (MOLT-4, Log10 M -8): 6961773 and 6888133
raw signal, dose-response (Figure S7a) (SR, Log10 M -4): 14067 and 13787
raw signal, dose-response (Figure S7a) (SR, Log10 M -4.5): 35000 and 26573
raw signal, dose-response (Figure S7a) (SR, Log10 M -5): 2706093 and 3120400
raw signal, dose-response (Figure S7a) (SR, Log10 M -5.5): 3256320 and 3580587
raw signal, dose-response (Figure S7a) (SR, Log10 M -6): 3226453 and 3322280
raw signal, dose-response (Figure S7a) (SR, Log10 M -6.5): 3558600 and 3526027
raw signal, dose-response (Figure S7a) (SR, Log10 M -7): 2883787 and 3035533
raw signal, dose-response (Figure S7a) (SR, Log10 M -7.5): 3423760 and 3325493
raw signal, dose-response (Figure S7a) (SR, Log10 M -8): 3355853 and 3535333
raw signal, dose-response (Figure S7a) (SUP-T1, Log10 M -4): 23760 and 47307
raw signal, dose-response (Figure S7a) (SUP-T1, Log10 M -4.5): 44040 and 66933
raw signal, dose-response (Figure S7a) (SUP-T1, Log10 M -5): 5647093 and 4986840
raw signal, dose-response (Figure S7a) (SUP-T1, Log10 M -5.5): 6851973 and 7008107
raw signal, dose-response (Figure S7a) (SUP-T1, Log10 M -6): 6610693 and 7288227
raw signal, dose-response (Figure S7a) (SUP-T1, Log10 M -6.5): 6531960 and 6798507
raw signal, dose-response (Figure S7a) (SUP-T1, Log10 M -7): 6485200 and 6760880
raw signal, dose-response (Figure S7a) (SUP-T1, Log10 M -7.5): 6096293 and 6838453
raw signal, dose-response (Figure S7a) (SUP-T1, Log10 M -8): 6918733 and 6611987

Reference: PMC11696576, “Next generation thiazolyl ketone inhibitors of cytosolic phospholipase A2 α for targeted cancer therapy” (Nature Communications, 2025)
